This is an account of results in ChEMBL document CHEMBL1201862, “PubChem BioAssay data set” (2004).

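Exposure lasted 48 hours, with cells grown in 96-well plates and compounds tested at five concentrations. GI50 is the concentration that inhibits growth by half.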 The source made the active and inactive calls. Cut-off read from the data, not from the text of the source: active = GI50 up to about 1.1 µM and inactive = higher. Where only a bound is given, the exact number is not on record here.

Test systems include HCT-116; Malme-3M; NCI/ADR-RES; SK-MEL-5; SNB-75; IGROV-1; KM12; MDA-MB-435; UO-31; NCI-H522; MDA-MB-231; SR; ACHN; HCT-15; U-251; SF-539; MOLT-4; UACC-257; SK-OV-3; COLO 205.
What all share (experiment): inhibition of tumour cell growth, NCI panel, 48 h

With `COc1ccc(/C=C/C(=O)c2cc(C(C)(C)C)c(O)c(C(C)(C)C)c2)cc1OC`, the GI50 in the experiment on HCT-116 is 4.25 µM (inactive); in the experiment on Malme-3M, 61.2 µM (inactive); in the experiment on NCI/ADR-RES, 4.85 µM (inactive); with SK-MEL-5 it was 6.75 µM (inactive); in the experiment with SNB-75, 3.01 µM (inactive); in the experiment on IGROV-1, 17.7 µM (inactive). The GI50 was 4.36 µM (inactive) in the experiment on KM12; 3.2 µM (inactive) in the experiment on MDA-MB-435; 5.16 µM (inactive) in the experiment on UO-31; 5.61 µM (inactive) with NCI-H522; 6.4 µM (inactive) in the experiment with MDA-MB-231; 0.551 µM (active) in the experiment with SR. For the same compound, the GI50 with ACHN is 14.6 µM (inactive); with HCT-15, 5.68 µM; in the experiment with U-251, 5.79 µM (inactive); in the experiment with SF-539, 12.7 µM (inactive); in the experiment with MOLT-4, 2.77 µM (inactive); in the experiment on UACC-257, 5.12 µM (inactive). Also, the GI50 was 18.7 µM (inactive) in the experiment with SK-OV-3 and 5.74 µM (inactive) in the experiment with COLO 205.
For the compound `OC1(c2ccccc2)CC2CCC(C1)N2CCCC(O)(c1ccccc1)c1ccccc1` (stereo not given), the GI50 is 14.6 µM (inactive) in the experiment with HCT-116; 15.9 µM (inactive) with Malme-3M; 17.7 µM (inactive) with NCI/ADR-RES; 3.2 µM (inactive) with SK-MEL-5; 11.2 µM (inactive) in the experiment with SNB-75; 7.98 µM (inactive) in the experiment on IGROV-1. The GI50 was 15.3 µM (inactive) in the experiment on KM12; 12 µM (inactive) in the experiment with MDA-MB-435; 7.55 µM (inactive) with UO-31; 10.2 µM (inactive) with NCI-H522; 18.9 µM (inactive) with MDA-MB-231; 11.8 µM (inactive) in the experiment with SR. Also, the GI50 is 17.2 µM (inactive) in the experiment with ACHN; 14.2 µM with HCT-15; 15.1 µM (inactive) in the experiment with U-251; 4.54 µM (inactive) with SF-539; 7.45 µM (inactive) with MOLT-4; 2 µM (inactive) in the experiment with UACC-257. Moreover, the GI50 with SK-OV-3 is 13.8 µM (inactive); with COLO 205, 10.5 µM (inactive).
In the case of `O=c1[nH]c(=O)n(C2CC(O)C(CO)O2)c2nc3ccc4ccccc4c3nc12` (stereo not given), the GI50 in the experiment on HCT-116 was > 100 µM (inactive); in the experiment on Malme-3M, > 100 µM (inactive); in the experiment on NCI/ADR-RES it was > 100 µM (inactive); with SK-MEL-5 it was 54.1 µM (inactive); with SNB-75, 52.8 µM (inactive); with IGROV-1, 47.4 µM (inactive). Moreover, the GI50 is > 100 µM (inactive) with KM12; > 100 µM (inactive) in the experiment on MDA-MB-435; > 100 µM (inactive) in the experiment with UO-31; 45.6 µM (inactive) in the experiment on NCI-H522; 26.9 µM (inactive) in the experiment on MDA-MB-231; 24.9 µM (inactive) in the experiment on SR. In addition, the GI50 is > 100 µM (inactive) in the experiment on ACHN; 62.2 µM in the experiment on HCT-15; 33.7 µM (inactive) in the experiment with U-251; 92.9 µM (inactive) in the experiment with SF-539; 24.5 µM (inactive) in the experiment on MOLT-4; > 100 µM (inactive) with UACC-257. Moreover, the GI50 is > 100 µM (inactive) in the experiment on SK-OV-3 and 64.9 µM (inactive) with COLO 205.
On to `CSC1(C(=O)O)C2CCC3C2CCC31` (stereo not given), for which the GI50 in the experiment with HCT-116, in the experiment with Malme-3M, in the experiment on NCI/ADR-RES, in the experiment on SK-MEL-5, in the experiment with SNB-75 and in the experiment with IGROV-1 was > 100 µM (inactive) in each case. Besides, the GI50 in the experiment with KM12, in the experiment with MDA-MB-435, in the experiment with UO-31, in the experiment with NCI-H522, in the experiment with MDA-MB-231 and in the experiment with SR was > 100 µM (inactive) throughout. The GI50 is > 100 µM (inactive) in the experiment on ACHN; above 100 µM in the experiment on HCT-15; > 100 µM (inactive) in the experiment on U-251; > 100 µM (inactive) with SF-539; > 100 µM (inactive) in the experiment on MOLT-4; > 100 µM (inactive) with UACC-257. In addition, the GI50 in the experiment with SK-OV-3 and in the experiment on COLO 205 was > 100 µM (inactive) in each case.
With `Nc1nc(O)c2[nH]nnc2n1` [8-AZAGUANINE], the GI50 was 0.881 µM (active) with HCT-116; 0.352 µM (active) in the experiment on Malme-3M; 1.93 µM (inactive) in the experiment with NCI/ADR-RES; 0.748 µM (active) with SK-MEL-5; 1.54 µM (inactive) in the experiment with SNB-75; 63.8 µM (inactive) with IGROV-1. The GI50 is 34.1 µM (inactive) in the experiment with KM12; 0.265 µM (active) with MDA-MB-435; 0.366 µM (active) in the experiment with UO-31; 13.9 µM (inactive) in the experiment on NCI-H522; 5.82 µM (inactive) with MDA-MB-231; 2.42 µM (inactive) in the experiment on SR. Further, the GI50 is 16.3 µM (inactive) in the experiment on ACHN; 24 µM with HCT-15; 1.74 µM (inactive) with U-251; 0.361 µM (active) in the experiment on SF-539; 0.272 µM (active) with MOLT-4; 0.735 µM (active) in the experiment with UACC-257. Besides, the GI50 in the experiment on SK-OV-3 is 1.04 µM (active); in the experiment with COLO 205, 13.3 µM (inactive).
As to `O[C@H]1[C@H]2c3cc4c(cc3CN3CCC(=C[C@@H]1O)[C@H]23)OCO4` [LYCORINE], the GI50 in the experiment with HCT-116 was 1.26 µM (inactive); in the experiment with Malme-3M it was 1.92 µM (inactive); with NCI/ADR-RES it was 2.31 µM (inactive); in the experiment with SK-MEL-5, 1.42 µM (inactive); in the experiment on SNB-75, 3.13 µM (inactive); in the experiment on IGROV-1 it was 0.332 µM (active). The GI50 in the experiment with KM12 was 2.7 µM (inactive); with MDA-MB-435, 2.07 µM (inactive); in the experiment on UO-31, 1.47 µM (inactive); in the experiment with NCI-H522, 1.05 µM (active); with MDA-MB-231, 1.65 µM (inactive); with SR, 1.47 µM (inactive). Also, the GI50 with ACHN was 0.849 µM (active); in the experiment with HCT-15, 1.33 µM; with U-251, 1.99 µM (inactive); in the experiment on SF-539 it was 1.8 µM (inactive); in the experiment on MOLT-4 it was 1.29 µM (inactive); in the experiment with UACC-257, 0.65 µM (active). In addition, the GI50 in the experiment with SK-OV-3 was 1.84 µM (inactive); with COLO 205, 1.25 µM (inactive).
